Measurements from patent US11306337B2, “Polypeptides having hydrolytic activity on 1-kestose in the presence of sucrose but lacking sucrase (invertase) activity, polynucleotides encoding same and methods of producting and using same in industrial sucrose production from 1-kestose” (CTC—Centro de Tecnologia Canavieira S.A., priority 2015, dated 2022).

Tests used:
[1] = target: T1, Saccharomyces cerevisiae invertase (Saccharomyces cerevisiae, UniProt P00724); conditions: cited from earlier work; for Activity: substrate hydrolysed by S. cerevisiae invertase, Sainz-Polo et al., 2013; for Activity of S. cerevisiae invertase with the oligosaccharide as substrate: Sainz-Polo et al. 2013
T1 sequence (P00724 20-532): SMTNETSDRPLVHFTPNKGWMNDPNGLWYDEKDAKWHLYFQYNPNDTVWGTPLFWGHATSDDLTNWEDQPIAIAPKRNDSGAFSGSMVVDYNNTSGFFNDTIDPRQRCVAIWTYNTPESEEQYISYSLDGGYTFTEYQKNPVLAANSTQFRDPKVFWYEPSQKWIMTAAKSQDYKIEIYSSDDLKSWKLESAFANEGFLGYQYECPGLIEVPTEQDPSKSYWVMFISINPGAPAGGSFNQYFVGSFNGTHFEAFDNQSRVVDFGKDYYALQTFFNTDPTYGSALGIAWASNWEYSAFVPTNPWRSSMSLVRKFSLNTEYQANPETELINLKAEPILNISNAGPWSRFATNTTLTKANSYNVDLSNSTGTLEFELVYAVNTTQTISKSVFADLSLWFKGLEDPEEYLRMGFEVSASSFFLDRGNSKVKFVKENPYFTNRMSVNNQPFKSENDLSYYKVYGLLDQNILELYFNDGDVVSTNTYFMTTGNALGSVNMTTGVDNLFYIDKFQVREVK

[2] = Sucrose inhibition assay of 1-kestose hydrolysis by partially purified recombinant 1-FEH targets (HPAEC-PAD, fructose released); format: biochemical; conditions: 380 mM sucrose; 10 mM 1-kestose, 1 hour, 30° C., pH6.0
Protocol: The enzymes A, B, C and D were expressed in Pichia pastoris KM71H strain with a fusion GFP protein at C-terminal in 300 mL of culture media. After 48-hour induction with 0.5% (v/v) […] of methanol, the recombinant proteins were partially purified by precipitation with ammonium sulphate at 70% of saturation, followed by solubilization with sodium phosphate buffer 50 mM pH6.0. The partially purified proteins were concentrated and analyzed by SDS-PAGE and blue-light transluminator for GFP fluorescence. The enzymatic activity assays of the partially purified enzymes were evaluated using 10 mM 1-kestose as substrate, 50 uL of enzyme and sucrose as inhibitor ranging from zero to 380 mM, in a 100 μL-reaction buffered with sodium phosphate 50 mM pH6.0. The reactions were carried for 1 hour at 30° C. and stopped by heating at 95° C. for 5 minutes. The reactions were than diluted to 4 mL with ultrapure water and analyzed high-pressure anion-exchange chromatography with pulsed amperometric detection (HPAEC-PAD, Dionex, Sunnyvale, Calif., USA). Enzyme relative activity was determined by the amount of fructose released.
After identifying that the chosen targets are active against 1-kestose but not sucrose, we performed sucrose inhibition studies in which the amount of enzyme and substrate were fixed and increasing concentrations of sucrose were added to the reaction. […]

[3] = cited from earlier work
[4] = 10 mM sucrose, Verhaest et al., 2007

OC[C@H]1O[C@@](CO)(OC[C@@]2(O[C@H]3O[C@H](CO)[C@@H](O)[C@H](O)[C@H]3O)O[C@H](CO)[C@@H](O)[C@@H]2O)[C@@H](O)[C@@H]1O [1-Kestose, β-D-fructofuranosyl-(2→1)-β-D-fructofuranosyl α-D-glucopyranoside]
Activity [1]: 102 ± 11 µmol/min/mg

OC[C@H]1O[C@@](CO)(OC[C@@]2(OC[C@@]3(O[C@H]4O[C@H](CO)[C@@H](O)[C@H](O)[C@H]4O)O[C@H](CO)[C@@H](O)[C@@H]3O)O[C@H](CO)[C@@H](O)[C@@H]2O)[C@@H](O)[C@@H]1O [Nystose]
Activity of S. cerevisiae invertase with the oligosaccharide as substrate [1]: hydrolyzed at a much lower rate
Activity [1]: 36 ± 1 µmol/min/mg

OC[C@H]1O[C@H](OC[C@H]2O[C@H](O[C@]3(CO)O[C@H](CO)[C@@H](O)[C@@H]3O)[C@H](O)[C@@H](O)[C@@H]2O)[C@H](O)[C@@H](O)[C@H]1O [Raffinose]
Activity [1]: 187 ± 8 µmol/min/mg

OC[C@H]1O[C@@](CO)(O[C@H]2O[C@H](CO)[C@@H](O)[C@H](O)[C@H]2O)[C@@H](O)[C@@H]1O [Sucrose, sucrose]
Activity of S. cerevisiae invertase with the oligosaccharide as substrate [1]: highest efficiency
Activity [1]: 520 ± 20 µmol/min/mg

Inulin
Activity of S. cerevisiae invertase with the oligosaccharide as substrate [1]: No significant activity
Activity [1]: 2.5 ± 0.1 µmol/min/mg

B1: enzyme D: Cichorium intybus 1-FEH IIa with W82 homologue replaced by leucine; also reported by Verhaest et al. 2007 (protein)
chain: QQIEQPYRTGYHFQPPSNWMNDPNGPMLYQGVYHFFYQYNPYAATFGDVIIWGHAVSYDLVNWIHLDPAIYPTQEADSKSCLSGSATILPGNIPAMLYTGSDSKSRQVQDLAWPKNLSDPFLREWVKHPKNPLITPPEGVKDDCFRDPSTAWLGPDGVWRIVVGGDRDNNGMAFLYQSTDFVNWKRYDQPLSSADATGTWECPDFYPVPLNSTNGLDTSVYGGSVRHVMKAGFEGHDWYTIGTYSPDRENFLPQNGLSLTGSTLDLRYDYGQFYASKSFFDDAKNRRVLWAWVPETDSQADDIEKGWAGLQSFPRALWIDRNGKQLIQWPVEEIEELRQNQVNLQNKNLKPGSVLEIHGIAASQADVTISFKLEGLKEAEVLDTTLVDPQALCNERGASSRGALGPFGLLAMASKDLKEQSAIFFRVFQNQLGRYSVLMCSDLSRSTVRSNIDTTSYGAFVDIDPRSEEISLRNLIDHSIIESFGAGGKTCITSRIYPKFVNNEEAHLFVFNNGTQNVKISEMSAWSMKNAKFVVDQSVKSAA
modifications: Fructan 1-exohydrolase precursor (W120L)
inhibition by sucrose [2]: 52%
inhibition by sucrose (text) [3, 4]: 0%
inhibition by sucrose (words) [3, 4]: no longer inhibited
% inhibition by sucrose ([3]; 10 mM sucrose): 0% with 10 mM
Sucrose inhibition ([3]; Weak / Strong, Table 3): Weak
inhibition by sucrose as described in the literature ([3]; no sucrose concentration stated): strongly inhibited
